Assay results taken from ChEMBL document CHEMBL3085759, “Structure-activity relationship (SAR) and preliminary mode of action studies of 3-substituted benzylthioquinolinium iodide as anti-opportunistic infection agents” (Eur J Med Chem, 2013).

Columns and labels:
Cryptococcus neoformans = test: Antimicrobial activity against Cryptococcus neoformans ATCC 90113 by Alamar blue method; type: functional, organism-based
Candida albicans = test: Antimicrobial activity against Candida albicans ATCC 90028 by Alamar blue method; type: functional, organism-based
Nakaseomyces glabratus = test: Antimicrobial activity against Candida glabrata by Alamar blue method; type: functional, organism-based
Pichia kudriavzevii = test: Antimicrobial activity against Candida krusei ATCC 6258 by Alamar blue method; type: functional, organism-based
[1] = Cytotoxicity against african green monkey Vero cells after 48 hrs by Neutral Red dye assay; type: cell-based; conditions: chlorocebus sabaeus, read-out: TC50
Staphylococcus aureus [2] = test: Antimicrobial activity against Staphylococcus aureus ATCC 29213 by Alamar blue method; type: functional, organism-based; conditions: Staphylococcus aureus, ATCC 29213; for IC50: read-out: IC50
Aspergillus fumigatus = test: Antimicrobial activity against Aspergillus fumigatus ATCC 204305 by Alamar blue method; type: functional, organism-based
Staphylococcus aureus [3] = test: Antimicrobial activity against methicillin-resistant Staphylococcus aureus ATCC 33591 by Alamar blue method; type: functional, organism-based
[4] = test system: Mycobacterium intracellulare; test: Antimicrobial activity against Mycobacterium intracellulare ATCC 23068 by Alamar blue method; type: functional, organism-based
Vero = test: Cytotoxicity against african green monkey Vero cells at 10 ug/ml after 48 hrs by Neutral Red dye assay; type: cell-based; conditions: chlorocebus sabaeus

With `FC(F)(F)c1ccc(CSc2cc3ccccc3[n+](CCCCCC3CCCCC3)c2)cc1.[I-]` the MFC (Cryptococcus neoformans) was 0.31 µg/mL, the MIC (Cryptococcus neoformans) was 0.31 µg/mL and the IC50 (Candida albicans) was 1.4 µg/mL. It also gave an MFC (Candida albicans) of 2.5 µg/mL, an MIC (Candida albicans) of 2.5 µg/mL and an IC50 (Nakaseomyces glabratus) of 2.7 µg/mL. For the same compound, the MFC (Nakaseomyces glabratus) was 5 µg/mL, the MIC (Nakaseomyces glabratus) was 5 µg/mL and the IC50 (Pichia kudriavzevii) was 0.46 µg/mL. It also gave an MFC (Pichia kudriavzevii) of 1.3 µg/mL, an MIC (Pichia kudriavzevii) of 1.3 µg/mL and a CC50 at 48 h [1] of 7.9 µg/mL. For the same compound, the MBC (Staphylococcus aureus [2]) was 1.3 µg/mL, the MIC (Staphylococcus aureus [2]) was 0.63 µg/mL and the IC50 (Staphylococcus aureus [2]) was 0.28 µg/mL. It also gave an IC50 (Aspergillus fumigatus) of 2.9 µg/mL, an MFC (Aspergillus fumigatus) of 5 µg/mL and an MIC (Aspergillus fumigatus) of 5 µg/mL. It also gave an IC50 (Staphylococcus aureus [3]) of 0.36 µg/mL, an MBC (Staphylococcus aureus [3]) of 1.3 µg/mL and an MIC (Staphylococcus aureus [3]) of 0.63 µg/mL. It also gave an IC50 [4] of 4.7 µg/mL, an MBC [4] of 10 µg/mL and an MIC [4] of 10 µg/mL.

With `N#Cc1ccc(CSc2cc3ccccc3[n+](CCCCCC3CCCCC3)c2)cc1.[I-]` the IC50 (Cryptococcus neoformans) was 0.81 µg/mL, the MFC (Cryptococcus neoformans) was 2.5 µg/mL and the MIC (Cryptococcus neoformans) was 2.5 µg/mL. The IC50 (Candida albicans) was 2.5 µg/mL, the MFC (Candida albicans) was 10 µg/mL and the MIC (Candida albicans) was 5 µg/mL. For the same compound, the IC50 (Nakaseomyces glabratus) was 11 µg/mL, the MFC (Nakaseomyces glabratus) was 20 µg/mL and the MIC (Nakaseomyces glabratus) was 20 µg/mL. The IC50 (Pichia kudriavzevii) was 5.7 µg/mL, the MFC (Pichia kudriavzevii) was 10 µg/mL and the MIC (Pichia kudriavzevii) was 10 µg/mL. For the same compound, the Activity (Vero) was “Non-toxic”, the MBC (Staphylococcus aureus [2]) was 5 µg/mL and the MIC (Staphylococcus aureus [2]) was 5 µg/mL. It also gave an IC50 (Staphylococcus aureus [2]) of 1.8 µg/mL, an IC50 (Aspergillus fumigatus) of 8.6 µg/mL and an MFC (Aspergillus fumigatus) of 20 µg/mL. It also gave an MIC (Aspergillus fumigatus) of 20 µg/mL, an IC50 (Staphylococcus aureus [3]) of 2.2 µg/mL and an MBC (Staphylococcus aureus [3]) of 5 µg/mL. For the same compound, the MIC (Staphylococcus aureus [3]) was 5 µg/mL, the IC50 [4] was > 20 µg/mL and the MBC [4] was > 20 µg/mL. For the same compound, the MIC [4] was > 20 µg/mL.

For `COc1ccccc1CSc1cc2ccccc2[n+](CCCCCC2CCCCC2)c1.[I-]`, the IC50 (Cryptococcus neoformans) was 0.34 µg/mL, the MFC (Cryptococcus neoformans) was 2.5 µg/mL and the MIC (Cryptococcus neoformans) was 0.63 µg/mL. It also gave an IC50 (Candida albicans) of 2.8 µg/mL, an MFC (Candida albicans) of 5 µg/mL and an MIC (Candida albicans) of 5 µg/mL. It also gave an IC50 (Nakaseomyces glabratus) of 8.2 µg/mL, an MFC (Nakaseomyces glabratus) of 20 µg/mL and an MIC (Nakaseomyces glabratus) of 20 µg/mL. It also gave an IC50 (Pichia kudriavzevii) of 0.75 µg/mL, an MFC (Pichia kudriavzevii) of 2.5 µg/mL and an MIC (Pichia kudriavzevii) of 2.5 µg/mL. For the same compound, the Activity (Vero) was “Non-toxic”, the MBC (Staphylococcus aureus [2]) was 5 µg/mL and the MIC (Staphylococcus aureus [2]) was 0.63 µg/mL. For the same compound, the IC50 (Staphylococcus aureus [2]) was 0.31 µg/mL, the IC50 (Aspergillus fumigatus) was 9.8 µg/mL and the MFC (Aspergillus fumigatus) was > 20 µg/mL. The MIC (Aspergillus fumigatus) was 20 µg/mL, the IC50 (Staphylococcus aureus [3]) was 0.35 µg/mL and the MBC (Staphylococcus aureus [3]) was 5 µg/mL. The MIC (Staphylococcus aureus [3]) was 0.63 µg/mL, the IC50 [4] was 3 µg/mL and the MBC [4] was 5 µg/mL. The MIC [4] was 5 µg/mL.

For `Brc1ccccc1CSc1cc2ccccc2[n+](CCCCCC2CCCCC2)c1.[I-]`, the MFC (Cryptococcus neoformans) was 2.5 µg/mL, the MIC (Cryptococcus neoformans) was 1.3 µg/mL and the IC50 (Candida albicans) was 4 µg/mL. The MFC (Candida albicans) was 10 µg/mL, the MIC (Candida albicans) was 10 µg/mL and the IC50 (Nakaseomyces glabratus) was 3.4 µg/mL. It also gave an MFC (Nakaseomyces glabratus) of 10 µg/mL, an MIC (Nakaseomyces glabratus) of 10 µg/mL and an IC50 (Pichia kudriavzevii) of 0.49 µg/mL. The MFC (Pichia kudriavzevii) was 1.3 µg/mL, the MIC (Pichia kudriavzevii) was 1.3 µg/mL and the Activity (Vero) was “Non-toxic”. For the same compound, the MBC (Staphylococcus aureus [2]) was 1.3 µg/mL, the MIC (Staphylococcus aureus [2]) was 0.63 µg/mL and the IC50 (Staphylococcus aureus [2]) was 0.42 µg/mL. It also gave an IC50 (Aspergillus fumigatus) of 9.6 µg/mL, an MFC (Aspergillus fumigatus) of 20 µg/mL and an MIC (Aspergillus fumigatus) of 20 µg/mL. The IC50 (Staphylococcus aureus [3]) was 0.41 µg/mL, the MBC (Staphylococcus aureus [3]) was 1.3 µg/mL and the MIC (Staphylococcus aureus [3]) was 0.63 µg/mL. It also gave an IC50 [4] of 3.5 µg/mL, an MBC [4] of 5 µg/mL and an MIC [4] of 5 µg/mL.

Work on `Brc1ccc(CSc2cc3ccccc3[n+](CCCCCC3CCCCC3)c2)cc1.[I-]` yielded an IC50 (Cryptococcus neoformans) of 0.22 µg/mL, an MFC (Cryptococcus neoformans) of 0.63 µg/mL and an MIC (Cryptococcus neoformans) of 0.63 µg/mL. It also gave an IC50 (Candida albicans) of 0.5 µg/mL, an MFC (Candida albicans) of 2.5 µg/mL and an MIC (Candida albicans) of 1.3 µg/mL. For the same compound, the IC50 (Nakaseomyces glabratus) was 1.6 µg/mL, the MFC (Nakaseomyces glabratus) was 5 µg/mL and the MIC (Nakaseomyces glabratus) was 5 µg/mL. For the same compound, the IC50 (Pichia kudriavzevii) was 0.49 µg/mL, the MFC (Pichia kudriavzevii) was 0.63 µg/mL and the MIC (Pichia kudriavzevii) was 0.63 µg/mL. The Activity (Vero) was “Non-toxic”, the MBC (Staphylococcus aureus [2]) was 1.3 µg/mL and the MIC (Staphylococcus aureus [2]) was 0.63 µg/mL. For the same compound, the IC50 (Staphylococcus aureus [2]) was 0.4 µg/mL, the IC50 (Aspergillus fumigatus) was 2.4 µg/mL and the MFC (Aspergillus fumigatus) was 5 µg/mL. The MIC (Aspergillus fumigatus) was 5 µg/mL, the IC50 (Staphylococcus aureus [3]) was 0.4 µg/mL and the MBC (Staphylococcus aureus [3]) was 1.3 µg/mL. It also gave an MIC (Staphylococcus aureus [3]) of 0.63 µg/mL, an IC50 [4] of 6.1 µg/mL and an MBC [4] of 10 µg/mL. It also gave an MIC [4] of 10 µg/mL.

`Cc1cc(C)c(CSc2cc3ccccc3[n+](CCCCCC3CCCCC3)c2)c(C)c1.[I-]` gave an IC50 (Cryptococcus neoformans) of 0.32 µg/mL, an MFC (Cryptococcus neoformans) of 0.63 µg/mL and an MIC (Cryptococcus neoformans) of 0.63 µg/mL. The IC50 (Candida albicans) was > 20 µg/mL, the MFC (Candida albicans) was > 20 µg/mL and the MIC (Candida albicans) was > 20 µg/mL. For the same compound, the IC50 (Nakaseomyces glabratus) was 1.7 µg/mL, the MFC (Nakaseomyces glabratus) was 5 µg/mL and the MIC (Nakaseomyces glabratus) was 5 µg/mL. The IC50 (Pichia kudriavzevii) was 0.44 µg/mL, the MFC (Pichia kudriavzevii) was 0.63 µg/mL and the MIC (Pichia kudriavzevii) was 0.63 µg/mL. For the same compound, the Activity (Vero) was “Non-toxic”, the MBC (Staphylococcus aureus [2]) was 1.3 µg/mL and the MIC (Staphylococcus aureus [2]) was 0.63 µg/mL. For the same compound, the IC50 (Staphylococcus aureus [2]) was 0.34 µg/mL, the IC50 (Aspergillus fumigatus) was 2.3 µg/mL and the MFC (Aspergillus fumigatus) was 5 µg/mL. It also gave an MIC (Aspergillus fumigatus) of 5 µg/mL, an IC50 (Staphylococcus aureus [3]) of 0.23 µg/mL and an MBC (Staphylococcus aureus [3]) of 0.63 µg/mL. It also gave an MIC (Staphylococcus aureus [3]) of 0.63 µg/mL, an IC50 [4] of 2.9 µg/mL and an MBC [4] of 5 µg/mL. The MIC [4] was 5 µg/mL.

Work on `Fc1cccc(CSc2cc3ccccc3[n+](CCCCCC3CCCCC3)c2)c1.[I-]` yielded an MFC (Cryptococcus neoformans) of 0.63 µg/mL, an MIC (Cryptococcus neoformans) of 0.63 µg/mL and an IC50 (Candida albicans) of 1.8 µg/mL. The MFC (Candida albicans) was 5 µg/mL, the MIC (Candida albicans) was 5 µg/mL and the IC50 (Nakaseomyces glabratus) was 2.6 µg/mL. It also gave an MFC (Nakaseomyces glabratus) of 5 µg/mL, an MIC (Nakaseomyces glabratus) of 5 µg/mL and an IC50 (Pichia kudriavzevii) of 0.49 µg/mL. The MFC (Pichia kudriavzevii) was 1.3 µg/mL, the MIC (Pichia kudriavzevii) was 1.3 µg/mL and the Activity (Vero) was “Non-toxic”. It also gave an MBC (Staphylococcus aureus [2]) of 1.3 µg/mL, an MIC (Staphylococcus aureus [2]) of 0.63 µg/mL and an IC50 (Staphylococcus aureus [2]) of 0.44 µg/mL. For the same compound, the IC50 (Aspergillus fumigatus) was 5.6 µg/mL, the MFC (Aspergillus fumigatus) was 20 µg/mL and the MIC (Aspergillus fumigatus) was 10 µg/mL. The IC50 (Staphylococcus aureus [3]) was 0.37 µg/mL, the MBC (Staphylococcus aureus [3]) was 1.3 µg/mL and the MIC (Staphylococcus aureus [3]) was 0.63 µg/mL. For the same compound, the IC50 [4] was 6.5 µg/mL, the MBC [4] was 10 µg/mL and the MIC [4] was 10 µg/mL.
